The text below walks through data of patent US20210008048A1, “COMPOSITIONS AND METHODS FOR CANCER TREATMENT” (Dana-Farber Cancer Institute, Inc., priority 2018, published 2021).

The structures appear in SMILES notation. Several values for one entry are separate records, joined by “and”; a condition that tells them apart may be missing. Equal entries are not always repeated.

In data set [1] the target is T1, TLR7 (Homo sapiens, UniProt Q9NYK1).
T1 construct: expressed in transfected cells; host or cells: HEK293
T1 sequence (Q9NYK1 27-1049): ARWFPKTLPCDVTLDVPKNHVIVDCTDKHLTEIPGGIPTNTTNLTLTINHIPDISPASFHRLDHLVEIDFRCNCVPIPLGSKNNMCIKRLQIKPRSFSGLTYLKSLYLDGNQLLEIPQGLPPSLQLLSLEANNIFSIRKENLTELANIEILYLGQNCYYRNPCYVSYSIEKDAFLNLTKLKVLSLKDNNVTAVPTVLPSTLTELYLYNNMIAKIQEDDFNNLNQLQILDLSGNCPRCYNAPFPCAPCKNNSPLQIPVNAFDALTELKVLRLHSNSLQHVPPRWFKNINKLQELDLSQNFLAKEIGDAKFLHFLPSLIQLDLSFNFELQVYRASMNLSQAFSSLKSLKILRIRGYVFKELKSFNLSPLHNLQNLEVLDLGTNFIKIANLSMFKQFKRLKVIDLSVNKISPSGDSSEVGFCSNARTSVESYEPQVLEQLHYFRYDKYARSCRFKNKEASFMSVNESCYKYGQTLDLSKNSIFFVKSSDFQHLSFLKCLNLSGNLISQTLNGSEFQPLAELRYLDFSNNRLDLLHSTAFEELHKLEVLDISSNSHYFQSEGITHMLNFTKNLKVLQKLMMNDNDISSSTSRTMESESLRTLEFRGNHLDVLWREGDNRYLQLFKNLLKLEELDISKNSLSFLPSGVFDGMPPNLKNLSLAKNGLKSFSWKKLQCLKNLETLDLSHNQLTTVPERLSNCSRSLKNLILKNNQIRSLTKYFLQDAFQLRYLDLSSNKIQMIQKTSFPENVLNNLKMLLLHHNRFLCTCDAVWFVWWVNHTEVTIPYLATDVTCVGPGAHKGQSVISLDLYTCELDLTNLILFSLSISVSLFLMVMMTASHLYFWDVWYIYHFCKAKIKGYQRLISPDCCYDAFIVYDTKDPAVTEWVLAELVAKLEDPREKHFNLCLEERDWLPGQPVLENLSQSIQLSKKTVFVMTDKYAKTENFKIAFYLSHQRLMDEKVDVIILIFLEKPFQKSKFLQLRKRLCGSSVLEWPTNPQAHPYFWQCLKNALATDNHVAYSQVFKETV
The following applies: TLR7-transfected HEK293 cells, cited from earlier work.

Data set [2] concerns the target T2, TLR8 (Homo sapiens, UniProt Q9NR97).
T2 construct: expressed in transfected cells; host or cells: HEK293
T2 sequence (Q9NR97 27-1041): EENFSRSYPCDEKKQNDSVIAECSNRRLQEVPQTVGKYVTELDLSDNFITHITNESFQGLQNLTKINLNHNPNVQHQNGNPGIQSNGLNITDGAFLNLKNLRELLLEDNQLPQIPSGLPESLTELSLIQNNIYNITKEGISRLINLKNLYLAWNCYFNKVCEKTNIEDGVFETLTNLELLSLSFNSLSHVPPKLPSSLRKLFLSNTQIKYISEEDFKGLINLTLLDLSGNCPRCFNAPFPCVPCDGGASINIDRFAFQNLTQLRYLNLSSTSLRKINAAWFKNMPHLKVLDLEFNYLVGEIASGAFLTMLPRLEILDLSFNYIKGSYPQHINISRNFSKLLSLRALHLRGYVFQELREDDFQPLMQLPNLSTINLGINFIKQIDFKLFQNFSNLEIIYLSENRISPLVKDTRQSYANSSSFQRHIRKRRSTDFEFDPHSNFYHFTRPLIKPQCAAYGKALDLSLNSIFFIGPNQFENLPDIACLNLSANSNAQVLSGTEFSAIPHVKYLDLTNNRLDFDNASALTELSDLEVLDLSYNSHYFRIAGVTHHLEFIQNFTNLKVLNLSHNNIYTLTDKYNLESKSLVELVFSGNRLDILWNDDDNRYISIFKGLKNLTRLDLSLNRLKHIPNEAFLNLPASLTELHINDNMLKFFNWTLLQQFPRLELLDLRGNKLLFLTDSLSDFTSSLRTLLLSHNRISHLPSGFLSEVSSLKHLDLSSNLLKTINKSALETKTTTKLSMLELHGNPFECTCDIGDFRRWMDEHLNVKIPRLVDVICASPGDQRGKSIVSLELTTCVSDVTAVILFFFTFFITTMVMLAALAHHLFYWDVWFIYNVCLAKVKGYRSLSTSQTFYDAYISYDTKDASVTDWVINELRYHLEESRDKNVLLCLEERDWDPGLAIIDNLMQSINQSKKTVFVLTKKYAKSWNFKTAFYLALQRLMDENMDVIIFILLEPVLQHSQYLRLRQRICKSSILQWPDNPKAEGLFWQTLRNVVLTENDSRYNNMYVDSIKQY
The note with it: even at high concentrations (>10 μg/ml); cited from earlier work.

The target of data set [3] is T1, TLR7. The note with it: concentrations as low as; cited from earlier work.
Data set [4] deals with 4T1-Luc2 breast cancer cells. Put plainly: Survival after resection of orthotopic 4T1-Luc2 tumors with a loaded hydrogel implanted at the resection site. Format: in vivo, female BALB/cJ mice. The following applies: crosslinked hyaluronic acid hydrogel loaded with the agent placed in tumor resection site on day 10 post-tumor inoculation; extended local release; versus empty hydrogel. As for the experimental part: The hydrogels for FIG. 1 were prepared according to the methods described for hydrogel 1 in Table 1. 120 μL of a hyaluronic acid solution (2.0% w/v GLYCOSIL) was pipetted into a mold. One mg of a p38 MAPK inhibitor (e.g., losmapimod (Selleckchem)) was dissolved in 10 μL DMSO, and this solution was added to the hyaluronic acid solution in the mold. Following mixing to create a homogeneous distribution of the payload, 30 μL of a PEG-diacrylate crosslinker solution (12.5% w/v EXTRALINK) was pipetted into the mold. The crosslinked hydrogel solidified in the mold over the course of a few minutes. Female BALB/cJ mice were inoculated orthotopically with 4T1-Luc2 breast cancer cells in their fourth mammary fat pad. On day 10 post-tumor inoculation, tumors (˜100 mm^3) were resected, and a hydrogel (e.g., a crosslinked hyaluronic acid hydrogel) loaded with a p38 MAPK inhibitor (e.g., losmapimod) was placed in the tumor resection site. Empty hydrogel was used as a negative control.
The hydrogels for FIG. 2 were prepared according to the methods described for hydrogel 1 in Table 1. 120 μL of a hyaluronic acid solution (2.0% w/v GLYCOSIL) was pipetted into a mold. Five hundred μg (40 μL) of an anti-IL-1β antibody (e.g., clone B122 (BioXCell)) was added to the hyaluronic acid solution in the mold. […]

The conditions of data set [5]: cited from earlier work.
The target of data set [6] is T2, TLR8. The following applies: TLR8-transfected HEK293 cells, cited from earlier work.

Regarding `CCCCNc1nc(N)c2nc(O)n(Cc3ccc(C(=O)NCC(=O)O)cc3)c2n1` [CL264], on TLR7 [1], the “concentration inducing NF-κB activation” value is 0.1 µM. Moreover, on TLR7 [1] (relative to imiquimod), the “concentration triggering NF-κB activation, times less than imiquimod” value is recorded as 5-10 times. Also, at TLR8 [2], the TLR8 stimulation entry is recorded as “does not stimulate TLR8”.
`CCCCNc1nc(N)c2nc(O)n(Cc3ccc(C(=O)NCC(=O)NCCCNCCCCNCCCN)cc3)c2n1` [CL307, N1-glycinyl[4-((6-amino-2-(butylamino)-8-hydroxy-9H-purin-9-yl)methyl)benzoyl] spermine]: the “concentration inducing robust NF-κB activation” value at TLR7 [3] was 20 nM and 10 ng/ml.
With `Cc1c(F)cc(C(=O)NC2CC2)cc1-c1ccc(C(=O)NCC(C)(C)C)cn1` [losmapimod], the “survival (Kaplan-Meier)” value in data set [4] is listed as “Prolonged survival benefit”.
Take `CCOCc1nc2c(N)nc3ccccc3c2[nH]1` [CL097]: in data set [5], the water solubility was not below 20 mg/mL.
For `CCOC(=O)C1=Cc2ccc(-c3cccc(C#N)c3)cc2N=C(N)C1` [TL8-506], the “potency in inducing NF-κB activation relative to CL075” value at TLR8 [6] (more potent than CL075) is recorded as approximately 25 ×. For the same compound, the “potency in inducing NF-κB activation relative to R848” value on TLR8 [6] (more potent than R848) is listed as approximately 50 ×.
